Test system: HT-29 cells
Test: HT29 cells 0FBS assay in vitro: TNF-α/SMAC mimetic/zVAD-FMK induced necroptosis, CellTiter-Glo cell viability (RIP1 inhibitory activity)
Format: cell-based
Details: Homo sapiens, FBS free medium, TNF-α (10 ng/ml) + SMAC mimetic (6 uM) + zVAD-FMK (10 μM), 20 hours, geometric mean EC50
Summary of the method: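 HT-29 cells (5,000/well, overnight) switched to FBS-free McCOY's 5A with TNF-α (10 ng/ml), SMAC mimetic (6 uM) and zVAD-FMK (10 μM) to drive necroptosis, plus compound, for 20 hours at 37° C. Viability read by CellTiter-Glo luminescence; geometric mean EC50 from 10-point duplicate dose-response.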

| SMILES | EC50 |
| --- | --- |
| Cc1ccc(C)n1-c1cc(OC2CN(C(=O)N3N=CC[C@H]3c3cc(F)cc(C#N)c3)C2)c(F)cn1 [Compound 39, (S)-3-(1-(3-((2-(2,5-dimethyl-1H-pyrrol-1-yl)-5-fluoropyridin-4-yl)oxy)azetidine-1-carbonyl)-4,5-dihydro-1H-pyrazol-5-yl)-5-fluorobenzonitrile] | 0.1 to 100 nM |
| Cc1c(C#N)nn(C)c1-c1cc(OC2CN(C(=O)N3N=CC[C@H]3c3cc(F)cc(C#N)c3)C2)c(F)cn1 [Compound 51, (S)-5-(4-((1-(5-(3-cyano-5-fluorophenyl)-4,5-dihydro-1H-pyrazole-1-carbonyl)azetidin-3-yl)oxy)-5-fluoropyridin-2-yl)-1,4-dimethyl-1H-pyrazole-3-carbonitrile] | 0.1 to 100 nM |
| Cc1nn(-c2cc(OC3CN(C(=O)N4N=CCC4c4cc(F)cc(F)c4F)C3)c(F)cn2)c(C)c1S(N)(=O)=O (centres unmarked) [Compound 112, 1-(5-fluoro-4-((1-(5-(2,3,5-trifluorophenyl)-4,5-dihydro-1H-pyrazole-1-carbonyl)azetidin-3-yl)oxy)pyridin-2-yl)-3,5-dimethyl-1H-pyrazole-4-sulfonamide] | 0.1 to 100 nM |
| Cc1cnn(C)c1-c1nc(OC2CN(C(=O)N3N=CC[C@H]3c3cc(F)cc(F)c3)C2)sc1CO [Compound 157, (S)-(5-(3,5-difluorophenyl)-4,5-dihydro-11H-pyrazol-1-yl)(3-((4-(1,4-dimethyl-1H-pyrazol-5-yl)-5-(hydroxymethyl)thiazol-2-yl)oxy)azetidin-1-yl)methanone] | 1000 to 10000 nM |
| Cc1nn(-c2cc(OC3CN(C(=O)N4N=CC[C@H]4c4cc(F)cc(C#N)c4)C3)c(F)cn2)c(C)c1C(=O)O [Compound 83, (S)-1-(4-((1-(5-(3-cyano-5-fluorophenyl)-4,5-dihydro-1H-pyrazole-1-carbonyl)azetidin-3-yl)oxy)-5-fluoropyridin-2-yl)-3,5-dimethyl-1H-pyrazole-4-carboxylic acid] | 0.1 to 100 nM |
| Cc1nn(-c2cc(OC3CN(C(=O)N4N=CC[C@@H]4c4cccc(F)c4)C3)c(F)cn2)c(C)c1C(N)=O [Compound 98, (R)-1-(5-fluoro-4-((1-(5-(3-fluorophenyl)-4,5-dihydro-1H-pyrazole-1-carbonyl)azetidin-3-yl)oxy)pyridin-2-yl)-3,5-dimethyl-1H-pyrazole-4-carb oxamide] | 1000 to 10000 nM |
| Cc1nn(-c2cc(OC3CN(C(=O)N4N=CC[C@@H]4c4cc(F)cc(F)c4F)C3)c(F)cn2)c(C)c1C(N)=O [Compound 103, (R)-1-(5-fluoro-4-((1-(5-(2,3,5-trifluorophenyl)-4,5-dihydro-1H-pyrazole-1-carbonyl)azetidin-3-yl)oxy)pyridin-2-yl)-3,5-dimethyl-1H-pyrazole-4-carboxamide] | 1000 to 10000 nM |
| Cc1nn(-c2cc(OC3CN(C(=O)C4=NNCC4c4cc(F)cc(F)c4)C3)c(F)cn2)c(C)c1C(N)=O (centres unmarked) [Compound 162, 1-(4-((1-(4-(3,5-difluorophenyl)-4,5-dihydro-1H-pyrazole-3-carbonyl)azetidin-3-yl)oxy)-5-fluoropyridin-2-yl)-3,5-dimethyl-1H-pyrazole-4-carb oxamide] | 0.1 to 100 nM |
| Cc1nc([C@@H]2CC=NN2C(=O)N2CC(Oc3cc(-c4c(C)cnn4C)ncc3F)C2)cs1 [Compound 120, (S)-(3-((2-(1,4-dimethyl-1H-pyrazol-5-yl)-5-fluoropyridin-4-yl)oxy)azetidin-1-yl)(5-(2-methylthiazol-4-yl)-4,5-dihydro-1H-pyrazol-1-yl)methanone] | 0.1 to 100 nM |
| Cc1nn(-c2cc(OC3CN(C(=O)N4N=CC[C@H]4c4cc(F)cc(C#N)c4)C3)c(F)cn2)c(C)c1C(=O)NC1COC1 [Compound 85, (S)-1-(4-((1-(5-(3-cyano-5-fluorophenyl)-4,5-dihydro-1H-pyrazole-1-carbonyl)azetidin-3-yl)oxy)-5-fluoropyridin-2-yl)-3,5-dimethyl-N-(oxetan-3-yl)-1H-pyrazole-4-carboxamide] | 0.1 to 100 nM |
| Cc1nn(-c2cc(OC3CN(C(=O)N4N=CC[C@H]4c4ccccc4)C3)c(F)cn2)c(C)c1C(=O)NC1COC1 [Compound 76, (S)-1-(5-fluoro-4-((1-(5-phenyl-4,5-dihydro-1H-pyrazole-1-carbonyl)azetidin-3-yl)oxy)pyridin-2-yl)-3,5-dimethyl-N-(oxetan-3-yl)-1H-pyrazole-4-carboxamide] | 0.1 to 100 nM |
| Cc1nn(-c2cc(OC3CN(C(=O)N4N=CC[C@@H]4c4cc(F)cc(F)c4F)C3)c(F)cn2)c(C)c1S(N)(=O)=O [Compound 125, (R)-1-(5-fluoro-4-((1-(5-(2,3,5-trifluorophenyl)-4,5-dihydro-1H-pyrazole-1-carbonyl)azetidin-3-yl)oxy)pyridin-2-yl)-3,5-dimethyl-1H-pyrazole-4-sulfonamide] | 100 to 1000 nM |
| Cc1nn(-c2cc(OC3CN(C(=O)N4N=CC[C@H]4c4cc(F)cc(Cl)c4)C3)c(F)cn2)c(C)c1C(N)=O [Compound 133, (S)-1-(4-((1-(5-(3-chloro-5-fluorophenyl)-4,5-dihydro-1H-pyrazole-1-carbonyl)azetidin-3-yl)oxy)-5-fluoropyridin-2-yl)-3,5-dimethyl-1H-pyrazole-4-carboxamide] | 0.1 to 100 nM |
| Cc1c(Cl)nn(C)c1-c1cc(OC2CN(C(=O)N3N=CC[C@H]3c3cc(F)cc(C#N)c3)C2)c(F)cn1 [Compound 50, (S)-3-(1-(3-((2-(3-chloro-1,4-dimethyl-1H-pyrazol-5-yl)-5-fluoropyridin-4-yl)oxy)azetidine-1-carbonyl)-4,5-dihydro-1H-pyrazol-5-yl)-5-fluoro benzonitrile] | 0.1 to 100 nM |
| Cn1ncc(Cl)c1-c1cc(OC2CN(C(=O)N3N=CC[C@H]3c3cc(F)cc(C#N)c3)C2)c(F)cn1 [Compound 6, (S)-3-(1-(3-((2-(4-chloro-1-methyl-1H-pyrazol-5-yl)-5-fluoropyridin-4-yl)oxy)azetidine-1-carbonyl)-4,5-dihydro-1H-pyrazol-5-yl)-5-fluorobenzonitrile] | 0.1 to 100 nM |
| Cc1nn(-c2cc(OC3CN(C(=O)N4N=CC[C@H]4c4cc(F)cc(F)c4)C3)c(Cl)cn2)c(C)c1C#N [Compound 159, (S)-1-(5-chloro-4-((1-(5-(3,5-difluorophenyl)-4,5-dihydro-1H-pyrazole-1-carbonyl)azetidin-3-yl)oxy)pyridin-2-yl)-3,5-dimethyl-1H-pyrazole-4-carbonitrile] | 0.1 to 100 nM |
| Cc1c(N)nn(C)c1-c1cc(OC2CN(C(=O)N3N=CCC3c3cc(F)cc(F)c3F)C2)c(F)cn1 (centres unmarked) [Compound 115, (3-((2-(3-amino-1,4-dimethyl-1H-pyrazol-5-yl)-5-fluoropyridin-4-yl)oxy)azetidin-1-yl)(5-(2,3,5-trifluorophenyl)-4,5-dihydro-1H-pyrazol-1-yl) methanone] | 0.1 to 100 nM |
| Cn1nccc1-c1cnc(OC2CN(C(=O)N3N=CC[C@H]3c3cc(F)cc(F)c3)C2)s1 [Compound 153, (S)-(5-(3,5-difluorophenyl)-4,5-dihydro-1H-pyrazol-1-yl)(3-((5-(1-methyl-1H-pyrazol-5-yl)thiazol-2-yl)oxy)azetidin-1-yl)methanone] | 0.1 to 100 nM |
| Cc1nn(-c2cc(OC3CN(C(=O)N4N=CC[C@H]4c4cccc(F)c4)C3)c(F)cn2)c(C)c1C(=O)NC1COC1 [Compound 77, (S)-1-(5-fluoro-4-((1-(5-(3-fluorophenyl)-4,5-dihydro-1H-pyrazole-1-carbonyl)azetidin-3-yl)oxy)pyridin-2-yl)-3,5-dimethyl-N-(oxetan-3-yl)-1H-pyrazole-4-carboxamide] | 0.1 to 100 nM |
| Cc1nc(C#N)c(C)n1-c1cc(OC2CN(C(=O)N3N=CC[C@H]3c3cncc(F)c3)C2)c(F)cn1 [Compound 68, (S)-1-(5-fluoro-4-((1-(5-(5-fluoropyridin-3-yl)-4,5-dihydro-1H-pyrazole-1-carbonyl)azetidin-3-yl)oxy)pyridin-2-yl)-2,5-dimethyl-1H-imidazole-4-carbonitrile] | 100 to 1000 nM |
| Cc1cc[nH]c(=O)c1-c1cc(OC2CN(C(=O)N3N=CC[C@H]3c3cc(F)cc(F)c3)C2)c(F)cn1 [Compound 166, (S)-4-((1-(5-(3,5-difluorophenyl)-4,5-dihydro-11H-pyrazole-1-carbonyl)azetidin-3-yl)oxy)-5-fluoro-4′-methyl-[2,3′-bipyridin]-2′(1′H)-one] | 100 to 1000 nM |
| Cn1cc(-c2cc(OC3CN(C(=O)N4N=CC[C@H]4c4cc(F)cc(C#N)c4)C3)c(F)cn2)nn1 [Compound 14, (S)-3-fluoro-5-(1-(3-((5-fluoro-2-(1-methyl-1H-1,2,3-triazol-4-yl)pyridin-4-yl)oxy)azetidine-1-carbonyl)-4,5-dihydro-1H-pyrazol-5-yl)benzonitrile] | 100 to 1000 nM |
| Cc1ncn(C)c1-c1cc(OC2CN(C(=O)N3N=CC[C@H]3c3cc(F)cc(C#N)c3)C2)c(F)cn1 [Compound 22, (S)-3-(1-(3-((2-(1,4-dimethyl-1H-imidazol-5-yl)-5-fluoropyridin-4-yl)oxy)azetidine-1-carbonyl)-4,5-dihydro-1H-pyrazol-5-yl)-5-fluorobenzonitrile] | 0.1 to 100 nM |
| Cc1nn(CC(N)=O)c(C)c1-c1cc(OC2CN(C(=O)N3N=CC[C@H]3c3cc(F)cc(C#N)c3)C2)c(F)cn1 [Compound 21, (S)-2-(4-(4-((1-(5-(3-cyano-5-fluorophenyl)-4,5-dihydro-1H-pyrazole-1-carbonyl)azetidin-3-yl)oxy)-5-fluoropyridin-2-yl)-3,5-dimethyl-1H-pyrazol-1-yl)acetamide] | 0.1 to 100 nM |
| Cn1ccnc1-c1ccc(F)c(OC2CN(C(=O)N3N=CC[C@H]3c3cc(F)cc(C#N)c3)C2)n1 [Compound 13, (S)-3-fluoro-5-(1-(3-((3-fluoro-6-(1-methyl-1H-imidazol-2-yl)pyridin-2-yl)oxy)azetidine-1-carbonyl)-4,5-dihydro-1H-pyrazol-5-yl)benzonitrile] | 0.1 to 100 nM |
| Cc1ncc(C2CC=NN2C(=O)N2CC(Oc3cc(-c4c(C)c(N)nn4C)ncc3F)C2)s1 (centres unmarked) [Compound 107, (3-((2-(3-amino-1,4-dimethyl-1H-pyrazol-5-yl)-5-fluoropyridin-4-yl)oxy)azetidin-1-yl)(5-(2-methylthiazol-5-yl)-4,5-dihydro-1H-pyrazol-1-yl) methanone] | 0.1 to 100 nM |
